Results from patent publication US7417054B2, “Naphthyridine compounds” (Janssen Pharmaceutica N.V., priority 2005, dated 2008).
Read-outs that look alike come from different tables or passages of the source.

What was measured:
human H3 receptor [1] = biological target: T1, human H3 receptor (Homo sapiens, UniProt Q9Y5N1); assay: H3 receptor binding, N-[3H]-α-methylhistamine displacement on SK-N-MC cell membranes; conditions: cloned human H3 receptor in SK-N-MC cell membranes; 0.8 nM N-[3H]-α-methylhistamine; 60 min at 25° C.
T1 construct: expressed in transfected cells; host or cells: SK-N-MC cells

human H3 receptor [2] = biological target: T1, human H3 receptor; assay: Cyclic AMP accumulation, β-galactosidase reporter in SK-N-MC cells; format: cell-based
Description: Sublines of SK-N-MC cells were created that expressed a reporter construct and the human H3 receptor. The reporter gene (β-galactosidase) is under the control of multiple cyclic AMP responsive elements. In 96-well plates, histamine was added directly to the cell media followed 5 min later by an addition of forskolin (5 μM final concentration). When appropriate, antagonists were added 10 min prior to agonist addition. After a 6-h incubation at 37° C., the media was aspirated and the cells washed with 200 μL of phosphate-buffered saline followed by a second aspiration. Cells were lysed with 25 μL 0.1× assay buffer (10 mM Na-phosphate, pH 8, 0.2 mM MgSO4, 0.01 mM MnCl2) and incubated at rt for 10 min. Cells were then incubated for 10 min with 100 μL of 1× assay buffer containing 0.5% Triton and 40 mM β-mercaptoethanol. Color was developed using 25 μL of 1 mg/mL substrate solution (chlorophenolred β-D galactopyranoside; Roche Molecular Biochemicals, Indianapolis, Ind.) Color was quantitated on a microplate reader at absorbance 570 nm.

Rat SERT = Rat SERT (Rattus norvegicus, UniProt P31652); assay: Rat brain SERT binding, [3H]-Citalopram displacement on rat brain membranes
human SERT = biological target: T2, human SERT (Homo sapiens, UniProt P31645); assay: Human SERT binding, 3H-citalopram displacement on HEK293 membranes; conditions: HEK293 membranes expressing the human SERT, rt for 1 h
T2 construct: expressed in transfected cells; host or cells: HEK293
Description: Homogenized HEK293 (Human Embryonic Kidney) membranes expressing the human SERT were incubated with ^3H-citalopram (SERT) at rt for 1 h in 50 mM Tris, 120 mM NaCl, 5 mM KCl (pH 7.4). […] The membranes were washed and the radioactivity was counted as above.

[3] = read-out: Rat SERT Ki, rat brain membranes without cerebellum, 0.6 nM [3H]-Citalopram, 60 min at 25° C.
[4] = Rat SERT Ki (nM), rat brain membranes without cerebellum, 0.6 nM [3H]-Citalopram, 60 min at 25° C.

T2 sequence (P31645 whole entry): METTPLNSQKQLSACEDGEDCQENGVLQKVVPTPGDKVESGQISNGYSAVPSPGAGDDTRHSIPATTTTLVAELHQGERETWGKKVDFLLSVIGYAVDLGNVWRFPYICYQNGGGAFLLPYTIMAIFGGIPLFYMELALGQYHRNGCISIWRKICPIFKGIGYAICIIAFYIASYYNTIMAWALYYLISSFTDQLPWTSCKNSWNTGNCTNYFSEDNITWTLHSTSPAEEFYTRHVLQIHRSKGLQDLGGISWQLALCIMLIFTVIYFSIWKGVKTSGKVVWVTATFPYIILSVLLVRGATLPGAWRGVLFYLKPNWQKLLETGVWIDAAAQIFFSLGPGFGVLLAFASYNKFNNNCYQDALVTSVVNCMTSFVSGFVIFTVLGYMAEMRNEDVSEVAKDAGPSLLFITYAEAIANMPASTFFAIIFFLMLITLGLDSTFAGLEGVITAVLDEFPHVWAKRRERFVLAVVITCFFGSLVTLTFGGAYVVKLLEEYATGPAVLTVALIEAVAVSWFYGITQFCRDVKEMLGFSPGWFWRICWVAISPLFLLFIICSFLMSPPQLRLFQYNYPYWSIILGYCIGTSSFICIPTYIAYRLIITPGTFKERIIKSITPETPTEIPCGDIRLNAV
Sequence of Rat SERT (P31652 whole entry): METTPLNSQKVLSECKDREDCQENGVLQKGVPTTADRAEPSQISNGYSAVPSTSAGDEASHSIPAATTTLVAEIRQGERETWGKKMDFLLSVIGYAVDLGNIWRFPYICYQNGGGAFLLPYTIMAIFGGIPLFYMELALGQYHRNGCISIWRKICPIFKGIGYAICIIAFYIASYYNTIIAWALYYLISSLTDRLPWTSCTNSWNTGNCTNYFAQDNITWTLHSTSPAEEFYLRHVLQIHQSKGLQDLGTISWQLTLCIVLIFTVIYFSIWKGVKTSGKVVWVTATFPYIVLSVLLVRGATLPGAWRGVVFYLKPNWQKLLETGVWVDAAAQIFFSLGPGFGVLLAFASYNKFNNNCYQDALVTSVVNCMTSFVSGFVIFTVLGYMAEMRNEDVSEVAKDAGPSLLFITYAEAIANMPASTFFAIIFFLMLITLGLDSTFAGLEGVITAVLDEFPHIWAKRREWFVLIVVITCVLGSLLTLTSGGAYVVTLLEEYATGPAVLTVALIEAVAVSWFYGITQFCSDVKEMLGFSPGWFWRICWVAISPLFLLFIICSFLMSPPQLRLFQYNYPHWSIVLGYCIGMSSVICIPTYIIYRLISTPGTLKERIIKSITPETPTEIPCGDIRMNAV
T1 sequence (Q9Y5N1 whole entry): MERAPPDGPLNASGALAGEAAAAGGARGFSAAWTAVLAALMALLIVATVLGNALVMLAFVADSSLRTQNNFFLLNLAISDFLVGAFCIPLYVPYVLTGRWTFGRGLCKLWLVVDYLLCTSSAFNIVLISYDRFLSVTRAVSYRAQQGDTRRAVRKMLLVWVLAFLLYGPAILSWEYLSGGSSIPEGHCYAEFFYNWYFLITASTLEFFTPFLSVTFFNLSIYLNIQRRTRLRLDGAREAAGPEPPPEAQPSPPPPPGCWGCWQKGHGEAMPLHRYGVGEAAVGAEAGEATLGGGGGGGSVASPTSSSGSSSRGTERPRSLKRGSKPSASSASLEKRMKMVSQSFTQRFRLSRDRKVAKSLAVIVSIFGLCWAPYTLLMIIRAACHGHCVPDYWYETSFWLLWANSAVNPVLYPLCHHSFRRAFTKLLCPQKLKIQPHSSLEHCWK

Row | SMILES | Ki (human H3 receptor [1]) | Kb (human H3 receptor [2]; read-out: pA2 (converted)) | Ki (Rat SERT) | Ki (Rat SERT; [4]) | Ki (human SERT) | Ki (Rat SERT; [3]) | Kb (human H3 receptor [2])
1 | CCN(CC)CCCOc1cc2c(cn1)C(c1ccccc1)CN(C)C2 (stereo not shown) [Example 7, Diethyl-[3-(6-methyl-8-phenyl-5,6,7,8-tetrahydro-[2,6]naphthyridin-3-yloxy)-propyl]-amine] | 4 nM | 0.631 nM |  |  | 2000 nM | 583 nM | 
2 | CCN(CC)CCCOc1cc2c(cn1)C(c1ccc(Cl)c(Cl)c1)CNC2 (stereo not shown) [Example 21, {3-[8-(3,4-Dichloro-phenyl)-5,6,7,8-tetrahydro-[2,6]naphthyridin-3-yloxy]-propyl}-diethyl-amine] | 7 nM | 15.8 nM |  |  | 26 nM | 15 nM | 
3 | Clc1ccccc1C1CNCc2cc(OCCCN3CCCCC3)ncc21 (stereo not shown) [Example 25, 4-(2-Chloro-phenyl)-7-(3-piperidin-1-yl-propoxy)-1,2,3,4-tetrahydro-[2,6]naphthyridine] | 1 nM | 1 nM |  |  | 1330 nM | 194 nM | 
4 | c1ccc(C2CNCc3cc(OCCCN4CCOCC4)ncc32)cc1 (stereo not shown) [Example 47, 7-(3-Morpholin-4-yl-propoxy)-4-phenyl-1,2,3,4-tetrahydro-[2,6]naphthyridine] | 11 nM |  |  |  |  |  | 12.6 nM
5 | c1ccc(C2CNCc3cc(OCCCN4CCCCC4)ncc32)cc1 (stereo not shown) [Example 4, 4-Phenyl-7-(3-piperidin-1-yl-propoxy)-1,2,3,4-tetrahydro-[2,6]naphthyridine] | 1 nM | 0.794 nM |  |  | 2330 nM | 1670 nM | 
6 | Clc1ccc(C2CNCc3cc(OCCCN4CCCCC4)ncc32)cc1 (stereo not shown) [Example 23, 4-(4-Chloro-phenyl)-7-(3-piperidin-1-yl-propoxy)-1,2,3,4-tetrahydro-[2,6]naphthyridine] | 2 nM | 3.98 nM |  |  | 141 nM | 30 nM | 
7 | CN1Cc2cc(OCCCN3CCCCC3)ncc2C(c2ccc(Cl)c(Cl)c2)C1 (racemic) [Example 16, 4-(3,4-Dichloro-phenyl)-2-methyl-7-(3-piperidin-1-yl-propoxy)-1,2,3,4-tetrahydro-[2,6]-naphthyridine] | 18 nM |  |  |  | 120 nM |  | 20 nM
8 | CN1Cc2cc(OCCCN3CCCCC3)ncc2C(c2ccccc2F)C1 (stereo not shown) [Example 2, 4-(2-Fluoro-phenyl)-2-methyl-7-(3-piperidin-1-yl-propoxy)-1,2,3,4-tetrahydro-[2,6]-naphthyridine] | 2 nM | 1 nM |  |  | 768 nM | 191 nM | 
9 | COc1ccc(C2CNCc3cc(OCCCN4CCCCC4)ncc32)cc1 (stereo not shown) [Example 6, 4-(4-Methoxy-phenyl)-7-(3-piperidin-1-yl-propoxy)-1,2,3,4-tetrahydro-[2,6]-naphthyridine] | 4 nM | 6.31 nM |  | 2280 nM | 147 nM |  | 
10 | Clc1ccc(C2CNCc3cc(OCCCN4CCCCC4)ncc32)cc1Cl (racemic) [Example 15, 4-(3,4-Dichloro-phenyl)-7-(3-piperidin-1-yl-propoxy)-1,2,3,4-tetrahydro-[2,6]-naphthyridine] | 5 nM | 12.6 nM | 20 nM |  | 33 nM |  | 

Further lines, with some results ahead:

Row | Ki (human H3 receptor [1]) | Kb (human H3 receptor [2]; read-out: pA2 (converted)) | Ki (Rat SERT) | Ki (Rat SERT; [4]) | SMILES | Ki (human SERT) | Ki (Rat SERT; [3]) | Kb (human H3 receptor [2])
11 | 2 nM | 2.51 nM | 2000 nM |  | Fc1cccc(C2CNCc3cc(OCCCN4CCCCC4)ncc32)c1 (stereo not shown) [Example 32, 4-(3-Fluoro-phenyl)-7-(3-piperidin-1-yl-propoxy)-1,2,3,4-tetrahydro-[2,6]naphthyridine] |  |  | 
12 | 1 nM | 0.794 nM | 1000 nM |  | Fc1ccccc1C1CNCc2cc(OCCCN3CCCCC3)ncc21 (stereo not shown) [Example 1, 4-(2-Fluoro-phenyl)-7-(3-piperidin-1-yl-propoxy)-1,2,3,4-tetrahydro-[2,6]naphthyridine] |  |  | 
13 | 1 nM | 1 nM | 179 nM |  | COc1cccc(C2CNCc3cc(OCCCN4CCCCC4)ncc32)c1 (stereo not shown) [Example 13, 4-(3-Methoxy-phenyl)-7-(3-piperidin-1-yl-propoxy)-1,2,3,4-tetrahydro-[2,6]-naphthyridine] |  |  | 
14 | 2 nM | 1 nM | 186 nM |  | CN1Cc2cc(OCCCN3CCCCC3)ncc2C(c2cccc(F)c2)C1 (stereo not shown) [Example 34, 4-(3-Fluoro-phenyl)-2-methyl-7-(3-piperidin-1-yl-propoxy)-1,2,3,4-tetrahydro-[2,6]-naphthyridine] |  |  | 
15 | 2 nM | 2.51 nM |  | 269 nM | Clc1cccc(C2CNCc3cc(OCCCN4CCCCC4)ncc32)c1 (stereo not shown) [Example 24, 4-(3-Chloro-phenyl)-7-(3-piperidin-1-yl-propoxy)-1,2,3,4-tetrahydro-[2,6]naphthyridine] |  |  | 
16 | 1 nM | 3.16 nM | 142 nM |  | Fc1ccc(C2CNCc3cc(OCCCN4CCCCC4)ncc32)cc1Cl (stereo not shown) [Example 33, 4-(3-Chloro-4-fluoro-phenyl)-7-(3-piperidin-1-yl-propoxy)-1,2,3,4-tetrahydro-[2,6]naphthyridine] |  |  | 
17 | 9 nM | 3.98 nM |  |  | CN1Cc2cc(OCCCN3CCCCC3)ncc2C(c2ccc(F)cc2)C1 (stereo not shown) [Example 18, 4-(4-Fluoro-phenyl)-2-methyl-7-(3-piperidin-1-yl-propoxy)-1,2,3,4-tetrahydro-[2,6]-naphthyridine] | 362 nM | 186 nM | 
18 | 4 nM | 3.98 nM |  |  | COc1ccc(C2CNCc3cc(OCC4CCN(C(C)C)CC4)ncc32)cc1 (stereo not shown) [Example 31, 7-(1-Isopropyl-piperidin-4-ylmethoxy)-4-(4-methoxy-phenyl)-1,2,3,4-tetrahydro-[2,6]-naphthyridine] | 93 nM | 15 nM | 
19 | 2 nM | 2.51 nM | 312 nM |  | Fc1ccc(C2CNCc3cc(OCCCN4CCCCC4)ncc32)cc1 (stereo not shown) [Example 17, 4-(4-Fluoro-phenyl)-7-(3-piperidin-1-yl-propoxy)-1,2,3,4-tetrahydro-[2,6]naphthyridine] | 1030 nM |  | 
20 | 1 nM | 2 nM |  | 1200 nM | CCN(CC)CCCOc1cc2c(cn1)C(c1ccccc1)CNC2 (stereo not shown) [Example 5, Diethyl-[3-(8-phenyl-5,6,7,8-tetrahydro-[2,6]naphthyridin-3-yloxy)-propyl]-amine] |  |  | 
